Like-named read-outs stand apart in the source and are kept apart here.
What was measured:
[1] = system: HflX binding to 50S ribosomes; test: Stopped-flow fluorescence kinetics of HflX-Atto488 association to 50S subunits; design: species or system Staphylococcus aureus
Protocol: FIG 3 Stopped-flow kinetic parameters of RA-GTPase association to the ribosomal subunits. (A) Schematic representation of the experimental setup for stopped-flow analysis. Nucleotides (brown circles), 50S subunits (orange oval), and Atto488-labeled RA-GTPases (purple hexagon) are indicated. Arrows indicate the direction of syringe movement. Atto-488 was excited using a 470-nm LED, and fluorescence was detected through a 515-nm long-pass filter. (B and C) Fluorescent change upon mixing 0.2 μM RbgA-Atto488 (B) or HflX-Atto488 (C) with 0.2 μM 50S ribosomal subunits in the presence of 100 μM GTP, ppGpp, and pppGpp or in the apo state using the stopped-flow fluorescence apparatus. Fluorescently labeled protein was also mixed with buffer lacking 50S subunits as a mixing control. Fluorescence of the reaction was tracked using exponential sampling for 10 s, and each curve represents the mean average of at least five technical replicates. (D) kapp1 dependence on 50S concentration for HflX complexed with GTP (green), ppGpp (pink), and pppGpp (black). (E) Same as for panel D for the kapp2 dependence. (F and G) Sum and product analyses of apparent rates during HflX association to the 50S subunit. HflX-Atto488 (0.05 μM) was mixed with increasing titrations of 50S ribosomal subunits over the fluorescently labeled protein in the presence of 20 μM GTP or ppGpp. The resultant traces (see Fig. S4) were analyzed by nonlinear regression using two exponential terms. The sum (F) and product (G) of apparent rates (kapp1 [D] and kapp2 [E]) were plotted as a function of the total concentration of the 50S subunits and HflX protein to determine the microscopic constants k1, k-1, k2, and k-2 (Table 2) and the resulting dissociation constant (Kd) (see Materials and Methods). Error bars represent the standard deviations of the apparent rates of four or more individual traces (D and E) or the standard errors of the two-step analysis (F and G).
Next, we used a constant concentration of protein in the presence of 200-fold excess of each nucleotide and titrated it with increasing concentrations of ribosomal subunits (see Fig. S4). […]
For initial controls, 0.2 μM Atto-488-labeled proteins were rapidly mixed with 0.2 μM E. coli 50S ribosomal subunits (purified as described elsewhere) in TAKM7 buffer (25 mM Tris-HCl [pH 7.4], 70 mM ammonium acetate, 30 mM KCl, 7 mM MgCl2) using an SX20 stopped-flow apparatus (Applied Photophysics) in the presence or absence of GTP, ppGpp, and pppGpp. […] Atto-488 was excited using a 470-nm LED and fluorescence was detected through a 515-nm long-pass filter. Reactions were monitored for 10 s, with 1,000 total data points per reaction. Each condition was subject to at least five technical repeats, with curves representing the mean average fluorescence of the technical repeats. […]

RbgA = RbgA (Staphylococcus aureus, UniProt A0A0H2XK72); test: DRaCALA binding of 32P-labeled nucleotides to 6×His-tagged RbgA; settings: for Bmax, RbgA: Bmax values indicate the fraction bound
Chain of RbgA (A0A0H2XK72 entry or part of it): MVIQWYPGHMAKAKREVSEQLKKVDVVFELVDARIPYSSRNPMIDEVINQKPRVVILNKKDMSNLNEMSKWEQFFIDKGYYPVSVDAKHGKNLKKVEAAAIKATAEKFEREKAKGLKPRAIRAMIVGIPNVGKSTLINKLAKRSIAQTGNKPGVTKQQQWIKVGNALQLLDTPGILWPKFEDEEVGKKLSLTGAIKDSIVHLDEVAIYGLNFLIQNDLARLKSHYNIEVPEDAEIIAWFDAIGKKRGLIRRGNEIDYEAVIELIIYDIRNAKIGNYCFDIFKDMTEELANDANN
Source text: FIG 1 Nucleotide binding characteristics of RA-GTPases. (A) Schematic representation of the domain structure of Era, RsgA, RbgA, and HflX from S. aureus. The conserved GTPase domain (G domain) is colored in green, and accessory domains are shown. (B) Determination of binding affinities and Kd values for ^32P-labeled GTP, GDP, ppGpp, and pppGpp with purified recombinant 6×His-tagged RbgA using DRaCALA, as previously described ([36]). Each point is the mean average of at least three technical replicates, and error bars indicate standard deviations. (C) Binding assay (DRaCALA) of recombinant RbgA binding to ^32P-labeled GTP, ppGpp, and pppGpp in the presence of an excess of cold competitor (GTP, GDP, ppGpp, pppGpp, or ATP). All experiments were carried out in triplicate, with error bars representing standard deviations.
The RA-GTPases RsgA, Era, RbgA, and HflX can bind to the guanosine nucleotides GTP, GDP, ppGpp, and pppGpp. Our previous work observed higher binding affinities for ppGpp over GTP, pointing toward a difference in binding between 5′ di- or triphosphate nucleotides ([27]). […] Furthermore, these previous experiments were performed using recombinant proteins fused to large MBP tags, which could impact binding affinity determination. To examine the nucleotide binding affinities of these RA-GTPases for GDP in comparison to ppGpp, pppGpp, and GTP, and in the absence of a large tag, we used a differential radial capillary action of ligand assay (DRaCALA) with recombinant RsgA, RbgA, Era, and HflX fused to a smaller 6× His tag (Fig. 1B; see also Fig. S2A to C in the supplemental material) ([36]). In each case, the affinities of 5′ diphosphate-containing GDP and ppGpp were similar in the low μM range and were 2- to 6-fold higher than the affinities of either GTP or pppGpp (Table 1).
The synthesis of (p)ppGpp and differential radial capillary action of ligand assay (DRaCALA) binding and competition assays were performed as described previously ([27]), using recombinant, 6×His-tagged protein at the concentrations specified in the figure legends.

Row | Compound | reduction of the second, slow-phase reaction of HflX relative to GTP-bound [1] [fold] | kapp2 of HflX association to 50S ([1]; GTP: hyperbolic, plateau, ppGpp: independent of 50S concentration) [s⁻¹] | Kd (RbgA; mean ± SEM, 32P-labeled nucleotide, 6×His-tagged protein, read-out: Kd, RbgA) [µM] | Bmax, RbgA (RbgA; mean ± SEM) | Kd (RbgA) [µM]
1 | Nc1nc2c(ncn2[C@@H]2O[C@H](COP(=O)(O)OP(=O)(O)O)[C@@H](OP(=O)(O)OP(=O)(O)O)[C@H]2O)c(=O)[nH]1 [ppGpp] | 4 | 1.0 | 2.9 ± 0.4 | 0.6 ± 0.0 | –
2 | Nc1nc2c(ncn2[C@@H]2O[C@H](COP(=O)(O)OP(=O)(O)OP(=O)(O)O)[C@@H](OP(=O)(O)OP(=O)(O)O)[C@H]2O)c(=O)[nH]1 [pppGpp] | – | – | – | 0.4 ± 0.0 | 13.8 ± 4
